Here are results for 1 compound from article PMC5218480 (PLoS ONE, 2017).

The assay concerns MV-4-11 cells. As to the kind of experiment: Gene expression microarray analysis (Affymetrix PrimeView) and GSEA. The following applies: MV-4-11 cells, 48 hours. The format is cell-based, human. The arrangement: RFU PODN (11730768_x_at) / Fold change /veh PODN (11730768_x_at) / RFU LINC00158 (11744669_a_at) / Fold change /veh LINC00158 (11744669_a_at) / RFU DUSP10 (11751237_a_at) / Fold change /veh DUSP10 (11751237_a_at) / RFU ID3 (11757404_x_at) / Fold change /veh ID3 (11757404_x_at) / RFU PLEKHG5 (11737974_s_at) / Fold change /veh PLEKHG5 (11737974_s_at) / RFU LRRC4B (11730491_at) / Fold change /veh LRRC4B (11730491_at) / RFU GIMAP4 (11747438_a_at) / Fold change /veh GIMAP4 (11747438_a_at) / RFU KRT8 (11758183_x_at) / Fold change /veh KRT8 (11758183_x_at) / RFU CNN1 (11734310_a_at) / Fold change /veh CNN1 (11734310_a_at) / RFU VPS37D (11726825_at) / Fold change /veh VPS37D (11726825_at) / RFU C10orf10 (11716522_x_at) / Fold change /veh C10orf10 (11716522_x_at) / RFU KIR2DL2 /// KIR2DL4 /// KIR2DL5A /// KIR2DL5B /// KIR2DS1 /// KIR2DS2 /// KIR2DS3 /// KIR2DS4 /// KIR3DL3 /// KIR3DL3 /// KIR3DS1 (11738374_at) / Fold change /veh KIR2DL2 /// KIR2DL4 /// KIR2DL5A /// KIR2DL5B /// KIR2DS1 /// KIR2DS2 /// KIR2DS3 /// KIR2DS4 /// KIR3DL3 /// KIR3DL3 /// KIR3DS1 (11738374_at) / RFU C1QL1 (11718748_at) / Fold change /veh C1QL1 (11718748_at) / RFU TMPRSS4 (11747572_a_at) / Fold change /veh TMPRSS4 (11747572_a_at) / RFU HAMP (11756126_x_at) / Fold change /veh HAMP (11756126_x_at) / RFU RNFT2 (11725882_a_at) / Fold change /veh RNFT2 (11725882_a_at) / RFU NR4A2 (11747474_a_at) / Fold change /veh NR4A2 (11747474_a_at) / RFU ABCC12 (11746883_a_at) / Fold change /veh ABCC12 (11746883_a_at) / RFU TMEM136 (11760407_x_at) / Fold change /veh TMEM136 (11760407_x_at) / RFU CLDN22 /// WWC2 (11732394_at) / Fold change /veh CLDN22 /// WWC2 (11732394_at) / RFU HLA-DPB1 (11760878_x_at) / Fold change /veh HLA-DPB1 (11760878_x_at) / RFU SPINT1 (11716480_a_at) / Fold change /veh SPINT1 (11716480_a_at) / RFU GAP43 (11754022_s_at) / Fold change /veh GAP43 (11754022_s_at) / RFU A4GNT (11735810_at) / Fold change /veh A4GNT (11735810_at) / RFU PRB3 (11715151_x_at) / Fold change /veh PRB3 (11715151_x_at) / RFU TUBB4B (11761932_at) / Fold change /veh TUBB4B (11761932_at) / RFU CAPN14 (11732068_a_at) / Fold change /veh CAPN14 (11732068_a_at) / RFU TMCC2 (11721928_a_at) / Fold change /veh TMCC2 (11721928_a_at) / RFU IRGQ (11745062_a_at) / Fold change /veh IRGQ (11745062_a_at) / RFU FAM174B (11720279_a_at) / Fold change /veh FAM174B (11720279_a_at) / RFU TMPRSS4 (11748680_a_at) / Fold change /veh TMPRSS4 (11748680_a_at) / RFU FAM212B (11763350_a_at) / Fold change /veh FAM212B (11763350_a_at) / RFU PLEKHG5 (11743358_a_at) / Fold change /veh PLEKHG5 (11743358_a_at) / RFU ZSCAN30 (11745921_a_at) / Fold change /veh ZSCAN30 (11745921_a_at) / RFU CMKLR1 (11741424_a_at) / Fold change /veh CMKLR1 (11741424_a_at) / RFU LOC101060620 /// MAPK8IP1 (11723275_at) / Fold change /veh LOC101060620 /// MAPK8IP1 (11723275_at) / RFU SPTSSB (11747773_x_at) / Fold change /veh SPTSSB (11747773_x_at) / RFU PRSS12 (11739890_at) / Fold change /veh PRSS12 (11739890_at) / RFU BIN1 (11741810_x_at) / Fold change /veh BIN1 (11741810_x_at) / RFU WNT11 (11732464_a_at) / Fold change /veh WNT11 (11732464_a_at) / RFU C10orf10 (11716521_a_at) / Fold change /veh C10orf10 (11716521_a_at) / RFU C5orf56 (11738089_at) / Fold change /veh C5orf56 (11738089_at) / RFU CYB561 (11721691_x_at) / Fold change /veh CYB561 (11721691_x_at) / RFU ANKRD19P (11752326_a_at) / Fold change /veh ANKRD19P (11752326_a_at) / RFU OR2T12 /// OR2T33 /// OR2T8 (11738714_s_at) / Fold change /veh OR2T12 /// OR2T33 /// OR2T8 (11738714_s_at) / RFU VCAN (11748164_a_at) / Fold change /veh VCAN (11748164_a_at) / RFU JSRP1 (11732532_at) / Fold change /veh JSRP1 (11732532_at) / RFU KRTAP10-11 (11738290_x_at) / Fold change /veh KRTAP10-11 (11738290_x_at) / RFU MYO3A (11730013_a_at) / Fold change /veh MYO3A (11730013_a_at) / RFU EBF3 (11725865_a_at) / Fold change /veh EBF3 (11725865_a_at) / RFU CAMK2N1 (11719241_x_at) / Fold change /veh CAMK2N1 (11719241_x_at) / RFU C5orf56 (11738088_a_at) / Fold change /veh C5orf56 (11738088_a_at) / RFU OLFML3 (11715873_a_at) / Fold change /veh OLFML3 (11715873_a_at) / RFU LOC100653217 /// NTM (11731650_a_at) / Fold change /veh LOC100653217 /// NTM (11731650_a_at) / RFU MAPK11 (11762145_a_at) / Fold change /veh MAPK11 (11762145_a_at) / RFU FIZ1 (11724087_x_at) / Fold change /veh FIZ1 (11724087_x_at) / RFU OASL (11726364_x_at) / Fold change /veh OASL (11726364_x_at) / RFU SOX15 (11748057_x_at) / Fold change /veh SOX15 (11748057_x_at) / RFU CD79A (11719716_a_at) / Fold change /veh CD79A (11719716_a_at) / RFU HIST1H1D (11736915_at) / Fold change /veh HIST1H1D (11736915_at) / RFU CASKIN2 (11723855_a_at) / Fold change /veh CASKIN2 (11723855_a_at) / RFU LOC730098 (11760151_x_at) / Fold change /veh LOC730098 (11760151_x_at) / RFU OR4N2 (11742367_at) / Fold change /veh OR4N2 (11742367_at) / RFU PRRT2 (11749266_a_at) / Fold change /veh PRRT2 (11749266_a_at) / RFU SNX32 (11753110_a_at) / Fold change /veh SNX32 (11753110_a_at) / RFU CDHR5 (11726645_a_at) / Fold change /veh CDHR5 (11726645_a_at) / RFU RCAN1 (11760418_a_at) / Fold change /veh RCAN1 (11760418_a_at) / RFU FAM167A (11723789_a_at) / Fold change /veh FAM167A (11723789_a_at) / RFU FAM26E (11764081_at) / Fold change /veh FAM26E (11764081_at) / RFU ISYNA1 (11749810_s_at) / Fold change /veh ISYNA1 (11749810_s_at) / RFU ACY1 (11761880_at) / Fold change /veh ACY1 (11761880_at) / RFU 11764098_at / Fold change /veh 11764098_at / RFU SAMD14 (11745864_x_at) / Fold change /veh SAMD14 (11745864_x_at) / RFU NPB (11741838_a_at) / Fold change /veh NPB (11741838_a_at) / RFU TMPRSS6 (11731388_a_at) / Fold change /veh TMPRSS6 (11731388_a_at) / RFU KRTAP10-2 (11738614_at) / Fold change /veh KRTAP10-2 (11738614_at) / RFU ARHGAP8 /// PRR5-ARHGAP8 (11727945_x_at) / Fold change /veh ARHGAP8 /// PRR5-ARHGAP8 (11727945_x_at) / RFU KRTAP5-7 /// NADSYN1 (11734609_at) / Fold change /veh KRTAP5-7 /// NADSYN1 (11734609_at) / RFU RASL12 (11751679_a_at) / Fold change /veh RASL12 (11751679_a_at) / RFU CDKN2B (11736163_a_at) / Fold change /veh CDKN2B (11736163_a_at) / RFU PRF1 (11729649_at) / Fold change /veh PRF1 (11729649_at) / RFU, ZNF638 /// ZNF638-IT1 / Fold change vs veh, ZNF638 /// ZNF638-IT1 / RFU, PANK3 / Fold change vs veh, PANK3 / RFU, SH3YL1 / Fold change vs veh, SH3YL1 / RFU, ZEB2 / Fold change vs veh, ZEB2 / RFU, NRIP1 / Fold change vs veh, NRIP1 / RFU, PTTG1IP / Fold change vs veh, PTTG1IP / RFU, CAPN2 / Fold change vs veh, CAPN2 / RFU, MED14 / Fold change vs veh, MED14 / RFU, SNORA58 / Fold change vs veh, SNORA58 / RFU, C1orf63 / Fold change vs veh, C1orf63 / RFU, LRRFIP1 / Fold change vs veh, LRRFIP1 / RFU, NDUFAF7 / Fold change vs veh, NDUFAF7 / RFU, SLC12A2 / Fold change vs veh, SLC12A2 / RFU, IBTK / Fold change vs veh, IBTK / RFU, ESF1 / Fold change vs veh, ESF1 / Fold change vs veh, TMEM50B / RFU, TAOK1 / Fold change vs veh, TAOK1 / RFU, ACBD3 / Fold change vs veh, ACBD3 / RFU, TMA16 / Fold change vs veh, TMA16 / RFU, RWDD3 / Fold change vs veh, RWDD3 / RFU, BCAT1 / Fold change vs veh, BCAT1 / RFU, EDEM3 / Fold change vs veh, EDEM3 / RFU, TMEM33 / Fold change vs veh, TMEM33 / RFU, WDR75 / Fold change vs veh, WDR75 / RFU, AHCTF1 / Fold change vs veh, AHCTF1 / RFU, TFRC / Fold change vs veh, TFRC / RFU, ZDHHC17 / Fold change vs veh, ZDHHC17 / RFU, NOM1 / Fold change vs veh, NOM1 / RFU, ARL8B / Fold change vs veh, ARL8B / RFU, ZBTB11 / Fold change vs veh, ZBTB11 / RFU, TAMM41 / Fold change vs veh, TAMM41 / RFU, KIAA1704 /// LOC100996395 / Fold change vs veh, KIAA1704 /// LOC100996395 / RFU, ING1 / Fold change vs veh, ING1 / RFU, TRMT61B / Fold change vs veh, TRMT61B / RFU, FUBP3 / Fold change vs veh, FUBP3 / RFU, TP53 / Fold change vs veh, TP53 / RFU, TNKS2 / Fold change vs veh, TNKS2 / RFU, ZFP14 / Fold change vs veh, ZFP14 / RFU, ACTR2 / Fold change vs veh, ACTR2 / RFU, PPP3R1 / Fold change vs veh, PPP3R1 / RFU, PIK3R1 / Fold change vs veh, PIK3R1 / RFU, HNRNPA1 / Fold change vs veh, HNRNPA1 / RFU, RNF170 / Fold change vs veh, RNF170 / RFU, ZNF28 / Fold change vs veh, ZNF28 / RFU, RNGTT / Fold change vs veh, RNGTT / RFU, OGT / Fold change vs veh, OGT / RFU, BRD1 / Fold change vs veh, BRD1 / RFU, MARS / Fold change vs veh, MARS / RFU, ZNF655 / Fold change vs veh, ZNF655 / RFU, FAHD1 / Fold change vs veh, FAHD1 / RFU, BDP1 / Fold change vs veh, BDP1 / RFU, LRRCC1 / Fold change vs veh, LRRCC1 / RFU, ARID1A / Fold change vs veh, ARID1A / RFU, ZNF146 / Fold change vs veh, ZNF146 / RFU, ZNF330 / Fold change vs veh, ZNF330 / RFU, GPN3 / Fold change vs veh, GPN3 / RFU, C9orf123 / Fold change vs veh, C9orf123 / RFU, N4BP2L2 / Fold change vs veh, N4BP2L2 / RFU, ARFIP1 / Fold change vs veh, ARFIP1 / RFU, FAM179B / Fold change vs veh, FAM179B / RFU, BCL10 / Fold change vs veh, BCL10 / RFU, UHRF1BP1L / Fold change vs veh, UHRF1BP1L / RFU, BET1 / Fold change vs veh, BET1 / RFU, CNOT2 / Fold change vs veh, CNOT2 / RFU, ZNF268 / Fold change vs veh, ZNF268 / Fold change vs veh, ZNF507 / RFU, DGCR2 / Fold change vs veh, DGCR2 / RFU, WDSUB1 / Fold change vs veh, WDSUB1 / Fold change vs veh, HSP90B1 /// MIR3652 / RFU, ADSS / Fold change vs veh, ADSS / RFU, GK / Fold change vs veh, GK / RFU, ZNF148 / Fold change vs veh, ZNF148 / RFU, TAF9 / Fold change vs veh, TAF9 / RFU, SLC1A5 / Fold change vs veh, SLC1A5 / RFU, SLMO2 / Fold change vs veh, SLMO2 / RFU, ABCC4 / Fold change vs veh, ABCC4 / RFU, LOC101060439 /// RAP1B / Fold change vs veh, LOC101060439 /// RAP1B / RFU, RFX7 / Fold change vs veh, RFX7 / RFU, GTPBP10 / Fold change vs veh, GTPBP10 / RFU, CNEP1R1 / Fold change vs veh, CNEP1R1 / RFU, BIVM-ERCC5 /// ERCC5 / Fold change vs veh, BIVM-ERCC5 /// ERCC5 / RFU, ILF3 / Fold change vs veh, ILF3 / RFU 11762660_at / Fold change /veh 11762660_at / RFU VCAN (11757783_s_at) / Fold change /veh VCAN (11757783_s_at) / RFU DDX43 (11728927_at) / Fold change /veh DDX43 (11728927_at) / RFU KRT8 (11758188_x_at) / Fold change /veh KRT8 (11758188_x_at) / RFU NKD1 (11759106_at) / Fold change /veh NKD1 (11759106_at) / RFU SRD5A1 (11742802_a_at) / Fold change /veh SRD5A1 (11742802_a_at) / RFU TPSAB1 /// TPSB2 (11721975_s_at) / Fold change /veh TPSAB1 /// TPSB2 (11721975_s_at) / RFU GSTM3 (11746129_a_at) / Fold change /veh GSTM3 (11746129_a_at) / RFU IL23R (11737362_x_at) / Fold change /veh IL23R (11737362_x_at) / RFU TMEM51 (11727254_a_at) / Fold change /veh TMEM51 (11727254_a_at) / RFU PIWIL2 (11732686_x_at) / Fold change /veh PIWIL2 (11732686_x_at) / RFU ORM1 (11744905_x_at) / Fold change /veh ORM1 (11744905_x_at) / RFU CCDC152 (11743942_at) / Fold change /veh CCDC152 (11743942_at) / RFU ECM1 (11717891_a_at) / Fold change /veh ECM1 (11717891_a_at) / RFU IL23R (11748794_a_at) / Fold change /veh IL23R (11748794_a_at) / RFU TNFAIP8L3 (11732012_x_at) / Fold change /veh TNFAIP8L3 (11732012_x_at) / RFU MBOAT4 (11741988_at) / Fold change /veh MBOAT4 (11741988_at) / RFU 11764193_at / Fold change /veh 11764193_at / RFU TMEM53 (11763286_at) / Fold change /veh TMEM53 (11763286_at) / RFU MAGEB2 (11727129_at) / Fold change /veh MAGEB2 (11727129_at) / RFU TMEM200A (11744735_a_at) / Fold change /veh TMEM200A (11744735_a_at) / RFU CCDC152 (11751479_a_at) / Fold change /veh CCDC152 (11751479_a_at) / RFU FAM211A (11726209_a_at) / Fold change /veh FAM211A (11726209_a_at) / RFU RGS16 (11746705_a_at) / Fold change /veh RGS16 (11746705_a_at) / RFU VCAN (11755009_s_at) / Fold change /veh VCAN (11755009_s_at) / RFU RHOB (11743442_s_at) / Fold change /veh RHOB (11743442_s_at) / RFU RGS16 (11720943_a_at) / Fold change /veh RGS16 (11720943_a_at) / RFU RGS16 (11720944_at) / Fold change /veh RGS16 (11720944_at) / RFU, VPS4B / Fold change vs veh, VPS4B / RFU, CREB1 / Fold change vs veh, CREB1 / RFU, DNAJC13 / Fold change vs veh, DNAJC13 / RFU, GNAQ / Fold change vs veh, GNAQ / RFU, CDK5R1 / Fold change vs veh, CDK5R1 / RFU, ZRANB3 / Fold change vs veh, ZRANB3 / RFU, CUL4A / Fold change vs veh, CUL4A / RFU, CCNY / Fold change vs veh, CCNY / RFU, UFL1 / Fold change vs veh, UFL1 / RFU, COG3 / Fold change vs veh, COG3 / RFU, DIAPH2 / Fold change vs veh, DIAPH2 / RFU, SKA2 / Fold change vs veh, SKA2 / RFU, AFF3 / Fold change vs veh, AFF3 / RFU, LMF1 / Fold change vs veh, LMF1 / RFU, IPO11 / Fold change vs veh, IPO11 / RFU, DFFB / Fold change vs veh, DFFB / RFU, FOXP1 / Fold change vs veh, FOXP1 / RFU, CARD8 / Fold change vs veh, CARD8 / RFU, STRN3 / Fold change vs veh, STRN3 / RFU, ADK / Fold change vs veh, ADK / RFU, RASSF2 / Fold change vs veh, RASSF2 / RFU, WIPF1 / Fold change vs veh, WIPF1 / RFU, LARP1B / Fold change vs veh, LARP1B / RFU, RASA1 / Fold change vs veh, RASA1 / RFU, RB1 / Fold change vs veh, RB1 / RFU, PPFIA1 / Fold change vs veh, PPFIA1 / RFU, MAT2A / Fold change vs veh, MAT2A / RFU, CCT5 / Fold change vs veh, CCT5 / RFU, WDR92 / Fold change vs veh, WDR92 / RFU, CUX1 / Fold change vs veh, CUX1 / RFU, TTC7A / Fold change vs veh, TTC7A / RFU, TMEM135 / Fold change vs veh, TMEM135 / RFU, DEPTOR / Fold change vs veh, DEPTOR / RFU, CPM / Fold change vs veh, CPM / RFU, DNAJB6 / Fold change vs veh, DNAJB6 / RFU, CACNA2D3 / Fold change vs veh, CACNA2D3 / RFU, DTX4 / Fold change vs veh, DTX4 / RFU, TFCP2 / Fold change vs veh, TFCP2 / RFU, GMCL1 /// GMCL1P1 / Fold change vs veh, GMCL1 /// GMCL1P1 / RFU, AEBP2 / Fold change vs veh, AEBP2 / RFU, SNHG1 /// SNORD22 /// SNORD25 /// SNORD26 /// SNORD27 /// SNORD28 /// SNORD29 /// SNORD31 / Fold change vs veh, SNHG1 /// SNORD22 /// SNORD25 /// SNORD26 /// SNORD27 /// SNORD28 /// SNORD29 /// SNORD31 / Fold change (Aza/veh), C12orf56 (ProbeSet 11735607_a_at) / Fold change (ACY-1035/veh), C12orf56 (ProbeSet 11735607_a_at) / Fold change (Aza/veh), FGFR1OP (ProbeSet 11751329_s_at) / Fold change (ACY-1035/veh), FGFR1OP (ProbeSet 11751329_s_at) / Fold change (Aza/veh), VPS36 (ProbeSet 11739960_a_at) / Fold change (ACY-1035/veh), VPS36 (ProbeSet 11739960_a_at) / RFU SYPL1 (11715823_x_at) / Fold change /veh SYPL1 (11715823_x_at) / RFU IGFBP7 (11715501_s_at) / Fold change /veh IGFBP7 (11715501_s_at) / RFU REEP3 (11722064_at) / Fold change /veh REEP3 (11722064_at) / RFU IGLL1 (11728026_x_at) / Fold change /veh IGLL1 (11728026_x_at): dose or concentration left out as unconfirmed.

Regarding `Nc1ncn([C@@H]2O[C@H](CO)[C@@H](O)[C@H]2O)c(=O)n1` [azacitidine], the “Fold change /veh TMEM53 (11763286_at)” value worked out at 1.48.
